Experiment [1] has as its system T1, 64′-OMT.
T1 construct: gene 6-OMT; pET-21d, no vector-derived peptides, E. coli BL21(DE3), purified; subunit ca. 40 kDa, native ca. 63 kDa, dimer
Put plainly: [3H]methyl transfer assay, double-reciprocal plots with secondary replots. The experiment is classed as biochemical, Coptis japonica. Conditions: 30 °C.

For a further experiment, the target named is T2, 6-OMT (Coptis japonica, UniProt Q9LEL6).
T2 construct: full length, recombinant in E. coli, crude lysate; dimer
Put plainly: LC/MS product analysis. The class given is biochemical. Conditions: 1 mM acceptor, 1 mM AdoMet, pH 7.5, 30 °C; presumed 3'-O-methylation; crude E. coli lysate.

Experiment [2] has as its target T1, 64′-OMT. Put plainly: [3H]methyl transfer assay, inhibition kinetics. The class given is biochemical, Coptis japonica. Particulars: competitive with AdoMet; varied substrate AdoMet, methyl acceptor norlaudanosoline; 30 °C.

T2 sequence (Q9LEL6 whole entry): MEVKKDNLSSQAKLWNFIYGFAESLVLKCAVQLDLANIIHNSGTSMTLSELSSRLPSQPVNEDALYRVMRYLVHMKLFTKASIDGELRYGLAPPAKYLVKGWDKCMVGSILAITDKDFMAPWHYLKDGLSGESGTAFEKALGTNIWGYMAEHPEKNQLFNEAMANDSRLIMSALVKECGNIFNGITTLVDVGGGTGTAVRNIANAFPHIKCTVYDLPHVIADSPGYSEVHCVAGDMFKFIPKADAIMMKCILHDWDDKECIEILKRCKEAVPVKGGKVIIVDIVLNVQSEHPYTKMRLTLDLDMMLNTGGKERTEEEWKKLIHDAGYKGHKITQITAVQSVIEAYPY

With `Oc1ccc(CC2NCCc3cc(O)c(O)cc32)cc1O` (racemic) [(R,S)-norlaudanosoline], in the experiment with 64′-OMT [1] (co-substrate [3H]AdoMet varied), the Km came out at 109 µM.

With `COc1cc2c(cc1O)[C@H](Cc1ccc(O)c(O)c1)N(C)CC2` [3′-hydroxy-N-methylcoclaurine], the LC/MS product analysis on 6-OMT is on record as 6-OMT showed a weak but evident peak that was distinct.

On 64′-OMT [2], `Nc1ncnc2c1ncn2[C@@H]1O[C@H](CSCC[C@H](N)C(=O)O)[C@@H](O)[C@H]1O` [AdoHcy] yielded a Ki of 70 µM.

For the molecule `C[S+](CC[C@H](N)C(=O)O)C[C@H]1O[C@@H](n2cnc3c(N)ncnc32)[C@H](O)[C@@H]1O` (stereo partly shown) [AdoMet], the Km with 64′-OMT [1] (co-substrate (R,S)-norlaudanosoline varied, labelled compound) is 187 µM.

Values taken from paper PMC3066540, “Molecular characterization of O-methyltransferases involved in isoquinoline alkaloid biosynthesis in Coptis japonica” (Proceedings of the Japan Academy. Series B, Physical and …, 2010).
